In ChEMBL document CHEMBL3217667, “Extended side chain analogues of 8-aminoquinolines: Synthesis and evaluation of antiprotozoal, antimicrobial, -hematin inhibition, and cytotoxic activities” (Medchemcomm, 2011):
Activity calls are given as the source filed them. The rule behind the calls is not given here.

Columns and labels:
Plasmodium falciparum [1] = assay: Antimalarial activity against chloroquine-sensitive Plasmodium falciparum D6 by lactate dehydrogenase assay; type: functional, organism-based
[2] = Selectivity index, ratio of IC50 for African green monkey Vero cells to IC50 for chloroquine-sensitive Plasmodium falciparum D6; type: toxicity, cell-based; conditions: read-out: Ratio IC50
Plasmodium falciparum [3] = assay: Antimalarial activity against chloroquine-resistant Plasmodium falciparum W2 by lactate dehydrogenase assay; type: functional, organism-based
[4] = Selectivity index, ratio of IC50 for African green monkey Vero cells to IC50 for chloroquine-resistant Plasmodium falciparum W2; type: toxicity, cell-based; conditions: read-out: Ratio IC50
Vero = assay: Cytotoxicity against African green monkey Vero cells by neutral red uptake assay; type: cell-based; conditions: Chlorocebus sabaeus
SK-MEL = assay: Cytotoxicity against human SK-MEL cells by neutral red uptake assay; type: cell-based
KB = assay: Cytotoxicity against human KB cells by neutral red uptake assay; type: cell-based
BT-549 = assay: Cytotoxicity against human BT549 cells by neutral red uptake assay; type: cell-based
SK-OV-3 = assay: Cytotoxicity against human SKOV3 cells by neutral red uptake assay; type: cell-based
LLC-PK1 = assay: Cytotoxicity against pig LLC-PK1 cells by neutral red uptake assay; type: cell-based; conditions: Sus scrofa
[5] = Inhibition of beta-hematin formation after 16 hrs; type: physicochemical
Leishmania donovani = assay: Antileishmanial activity against Leishmania donovani promastigotes by Alamar Blue assay; type: functional, organism-based
Plasmodium berghei [6] = assay: Antimalarial activity against Plasmodium berghei infected in mouse assessed as reduction in parasitemia at 10 mg/kg/day, po for 4 days measured up to day 7; type: functional, organism-based
Plasmodium berghei [7] = assay: Antimalarial activity against Plasmodium berghei infected in mouse assessed as reduction in parasitemia at 25 mg/kg/day, po for 4 days measured up to day 60 relative to control; type: functional; set-up: scale not given: the % may be the effect or the level left
Plasmodium berghei [8] = assay: Antimalarial activity against Plasmodium berghei infected in mouse assessed as reduction in parasitemia at 50 mg/kg/day, po for 4 days measured up to day 60 relative to control; type: functional; set-up: scale not given: the % may be the effect or the level left
Plasmodium berghei [9] = assay: Antimalarial activity against Plasmodium berghei infected in mouse assessed as reduction in parasitemia at 100 mg/kg/day, po for 4 days measured up to day 60 relative to control; type: functional; set-up: scale not given: the % may be the effect or the level left
Plasmodium berghei [10] = assay: Antimalarial activity against Plasmodium berghei infected in mouse assessed as reduction in parasitemia at 100 mg/kg/day, po for 4 days measured up to day 14; type: functional; set-up: scale not given: the % may be the effect or the level left
Staphylococcus aureus [11] = assay: Antibacterial activity against methicillin-resistant Staphylococcus aureus; type: functional, organism-based
[12] = system: Mycobacterium intracellulare; assay: Antibacterial activity against Mycobacterium intracellulare; type: functional, organism-based
Cryptococcus neoformans = assay: Antifungal activity against Cryptococcus neoformans by broth microdilution assay; type: functional, organism-based
Pseudomonas aeruginosa = assay: Antibacterial activity against Pseudomonas aeruginosa; type: functional, organism-based
Escherichia coli = assay: Antibacterial activity against Escherichia coli; type: functional, organism-based
Candida albicans = assay: Antifungal activity against Candida albicans by broth microdilution assay; type: functional, organism-based
Nakaseomyces glabratus = assay: Antifungal activity against Candida glabrata by broth microdilution assay; type: functional, organism-based
Pichia kudriavzevii = assay: Antifungal activity against Candida krusei by broth microdilution assay; type: functional, organism-based
Aspergillus fumigatus = assay: Antifungal activity against Aspergillus fumigatus by broth microdilution assay; type: functional, organism-based
[13] = system: Mycobacterium intracellulare; assay: Antibacterial activity against Mycobacterium intracellulare up to 20 ug/ml; type: functional, organism-based
Staphylococcus aureus [14] = assay: Antibacterial activity against Staphylococcus aureus; type: functional, organism-based
Staphylococcus aureus [15] = assay: Antibacterial activity against methicillin-resistant Staphylococcus aureus up to 20 ug/ml; type: functional, organism-based
[16] = Plasmodium falciparum, D6, read-out: IC50
[17] = Plasmodium falciparum, W2, read-out: IC50

| SMILES | IC50 (Plasmodium falciparum [1]; [16]) | IC50 (Vero) | IC50 (SK-MEL) | IC50 (KB) | IC50 (BT-549) | IC50 (SK-OV-3) | IC50 (LLC-PK1) | IC50 [5] | IC50 (Leishmania donovani) | IC90 (Leishmania donovani) | Activity (Plasmodium berghei [10]) | IC50 (Cryptococcus neoformans) | MFC (Cryptococcus neoformans) | MIC (Cryptococcus neoformans) | Activity (Pseudomonas aeruginosa) | Activity (Escherichia coli) | Activity (Candida albicans) | Activity (Nakaseomyces glabratus) | Activity (Pichia kudriavzevii) | Activity (Aspergillus fumigatus) | other results |
| --- | --- | --- | --- | --- | --- | --- | --- | --- | --- | --- | --- | --- | --- | --- | --- | --- | --- | --- | --- | --- | --- |
| COc1cc(NC(C)CCCNC(C)CCCNC(C)CCCNC(C)CCCN)c2nc(C(C)(C)C)ccc2c1.Cl (stereo unspecified) | 0.7 µg/mL | > 23.8 µg/mL | > 23.8 µg/mL | > 23.8 µg/mL | > 23.8 µg/mL | > 23.8 µg/mL | > 23.8 µg/mL | 10.2 µM | 1.6 µg/mL | 7.3 µg/mL | 100% | 10 µg/mL | 20 µg/mL | 20 µg/mL | inactive | inactive | inactive | inactive | inactive | inactive | selectivity ratio [2]: > 34; IC50 (Plasmodium falciparum [3]; [17]): 0.56 µg/mL; selectivity ratio [4]: > 42.5; Activity (Plasmodium berghei [6]): Active; Activity (Plasmodium berghei [7]): 100%; Activity (Plasmodium berghei [8]): 100%; Activity (Plasmodium berghei [9]): 100%; IC50 (Staphylococcus aureus [11]): 10 µg/mL; MBC (Staphylococcus aureus [11]): 20 µg/mL; MIC (Staphylococcus aureus [11]): 20 µg/mL; IC50 [12]: 15 µg/mL; MBC [12]: 20 µg/mL; MIC [12]: 20 µg/mL |
| COc1cc(NC(C)CCCNC(C)CCCN)c2nc(C(C)(C)C)ccc2c1.Cl (stereo unspecified) | 0.19 µg/mL | > 23.8 µg/mL | > 23.8 µg/mL | > 23.8 µg/mL | > 23.8 µg/mL | > 23.8 µg/mL | > 23.8 µg/mL | 7.5 µM | 2.8 µg/mL | 7.2 µg/mL | 100% | 10 µg/mL | 20 µg/mL | 20 µg/mL | inactive | inactive | inactive | inactive | inactive | inactive | Activity [13]: inactive; selectivity ratio [2]: > 125; IC50 (Plasmodium falciparum [3]; [17]): 0.12 µg/mL; selectivity ratio [4]: > 198; Activity (Plasmodium berghei [6]): Active; Activity (Plasmodium berghei [7]): 100%; Activity (Plasmodium berghei [8]): 100%; Activity (Plasmodium berghei [9]): 100%; IC50 (Staphylococcus aureus [11]): 6.5 µg/mL; MBC (Staphylococcus aureus [11]): 20 µg/mL; MIC (Staphylococcus aureus [11]): 10 µg/mL |
| CCCCCOc1c(OC)cc(NC(C)CCCNC(C)CCCNC(C)CCCN)c2nccc(CC)c12.Cl (stereo unspecified) | 0.57 µg/mL | > 23.8 µg/mL | > 23.8 µg/mL | > 23.8 µg/mL | > 23.8 µg/mL | > 23.8 µg/mL | > 23.8 µg/mL | 20.8 µM | 3.5 µg/mL | 7 µg/mL | inactive | 5.5 µg/mL | 10 µg/mL | 10 µg/mL | inactive | inactive | inactive | inactive | inactive | inactive | Activity [13]: inactive; selectivity ratio [2]: > 41.7; IC50 (Plasmodium falciparum [3]; [17]): 0.48 µg/mL; selectivity ratio [4]: > 49.5; IC50 (Staphylococcus aureus [14]): 8.6 µg/mL; MBC (Staphylococcus aureus [14]): 20 µg/mL; MIC (Staphylococcus aureus [14]): 20 µg/mL; IC50 (Staphylococcus aureus [11]): 9.5 µg/mL; MBC (Staphylococcus aureus [11]): 20 µg/mL; MIC (Staphylococcus aureus [11]): 20 µg/mL; IC50 [12]: 16.6 µg/mL; MIC [12]: 20 µg/mL |
| CCCCOc1c(OC)cc(NC(C)CCCNC(C)CCCNC(C)CCCNC(C)CCCN)c2nccc(CC)c12.Cl (stereo unspecified) | 0.49 µg/mL | > 23.8 µg/mL | > 23.8 µg/mL | > 23.8 µg/mL | > 23.8 µg/mL | > 23.8 µg/mL | > 23.8 µg/mL | 10.7 µM | 3.2 µg/mL | 7 µg/mL | inactive | 8 µg/mL | 20 µg/mL | 20 µg/mL | inactive | inactive | inactive | inactive | inactive | inactive | Activity (Staphylococcus aureus [15]): inactive; Activity [13]: inactive; selectivity ratio [2]: > 48.5; IC50 (Plasmodium falciparum [3]; [17]): 0.35 µg/mL; selectivity ratio [4]: > 68; IC50 (Staphylococcus aureus [14]): 13.6 µg/mL; MBC (Staphylococcus aureus [14]): 20 µg/mL; MIC (Staphylococcus aureus [14]): 20 µg/mL; IC50 (Staphylococcus aureus [11]): 13.2 µg/mL; MIC (Staphylococcus aureus [11]): 20 µg/mL; IC50 [12]: 15 µg/mL |
| COc1cc(NC(C)CCCNC(C)CCCNC(C)CCCN)c2nc(C(C)(C)C)ccc2c1.Cl (stereo unspecified) | – | > 23.8 µg/mL | > 23.8 µg/mL | > 23.8 µg/mL | > 23.8 µg/mL | > 23.8 µg/mL | > 23.8 µg/mL | > 1000 µM | 1.6 µg/mL | 4 µg/mL | 100% | 7.5 µg/mL | 20 µg/mL | 20 µg/mL | inactive | inactive | inactive | inactive | inactive | inactive | Activity (Staphylococcus aureus [15]): inactive; IC50 (Plasmodium falciparum [1]): Not Active; IC50 (Plasmodium falciparum [3]): Not Active; Activity (Plasmodium berghei [6]): Active; Activity (Plasmodium berghei [7]): 100%; Activity (Plasmodium berghei [8]): 100%; Activity (Plasmodium berghei [9]): 100%; IC50 [12]: 9 µg/mL; MBC [12]: 20 µg/mL; MIC [12]: 20 µg/mL |
| CCCCOc1c(OC)cc(NC(C)CCCNC(C)CCCNC(C)CCCN)c2nccc(CC)c12.Cl (stereo unspecified) | 0.54 µg/mL | > 23.8 µg/mL | > 23.8 µg/mL | > 23.8 µg/mL | > 23.8 µg/mL | > 23.8 µg/mL | > 23.8 µg/mL | 19.7 µM | 14 µg/mL | 32 µg/mL | inactive | 12.1 µg/mL | 20 µg/mL | 20 µg/mL | inactive | inactive | inactive | inactive | inactive | inactive | Activity (Staphylococcus aureus [15]): inactive; Activity [13]: inactive; selectivity ratio [2]: > 44; IC50 (Plasmodium falciparum [3]; [17]): 0.58 µg/mL; selectivity ratio [4]: > 41; IC50 (Staphylococcus aureus [14]): 12 µg/mL; MBC (Staphylococcus aureus [14]): 20 µg/mL; MIC (Staphylococcus aureus [14]): 20 µg/mL; IC50 (Staphylococcus aureus [11]): > 20 µg/mL; IC50 [12]: > 20 µg/mL |
